Test results reported in patent publication US20100317593A1, “2,3-DIHYDRO-1H-INDENE COMPOUNDS” (ASTRAZENECA AB, priority 2009, published 2010).

Biological target: T1, Glutathione-S-transferase tagged Bir3 domain of cIAP1 (L250-G350) (Homo sapiens, UniProt Q13490)
T1 construct: The cIAP1 Bir3 domain construct (aa L250-G350) was prepared from a full length cIAP1 clone; made in house; host or cells: Escherichia coli BL21 (DE3), pGEX-6P-1 vector
Test: Fluorescence polarization assay, cIAP1 Bir3 domain
Type: binding
Details: 20 nM cIAP1-Bir3, 2.5 nM AbuRPF-K-5FAM tracer, 20-minute incubation
Protocol: Materials: The cIAP1 Bir3 domain construct (aa L250-G350) was prepared from a full length cIAP1 clone (NCBI Reference Sequence: NM_001166.3). PCR was used to generate the Bir3 fragment which was inserted into a pGEX-6P-1 vector (GE LifeSciences) as a BamHI/XhoI fragment. Protein was prepared in Escherichia coli BL21 (DE3) grown at 37° C. containing ampicillin to an OD600 of 0.6. Protein expression was induced by 1 mM isopropyl β-D-1-thiogalactopyranoside (IPTG) for 3.75 hours.
Cells were lysed by sonication in buffer containing 100 mM Tris (pH 7.5), 150 mM NaCl, 5 mm dithiothreitol (DTT), 50 μM zinc acetate (ZnAc), ethylenediamine tetraacetic acid (EDTA) free Complete protease inhibitors (Roche Applied Science), 100 μg/mL lysozyme, and 0.5% Triton-X100. DNAse was added to the mixture after sonication. Proteins were purified from the soluble fraction using Glutathione Sepharose 4B resin (GE Lifesciences) followed by desalting on a PD-10 column (GE Lifesciences). This was followed by purification over an SEC 200 resin (GE Lifesciences). Final storage buffer consisted of 25 mM Tris, pH 7.5, 200 mM NaCl, 5 mM DTT, 50 uM ZnAc, 10% glycerol.
The fluorescence polarization assay was developed using Glutathione-S-transferase tagged Bir3 domain of cIAP1 (L250-G350). The tracer used was a synthetic peptide conjugated to 5-carboxyfluorescein (AbuRPF-K-5FAM).
Methods: Dilutions of cIAP1-Bir3 (20 nM) were added to 2.5 nM of fluorescent peptide tracer in assay buffer (final concentrations of 20 mM HEPES, pH 7.5, 1 mM DTT, 0.005% Tween-20 and 50 mM NaCl) containing various dilutions of binding inhibitors. Samples were read by a Tecan Ultra Evolution (Tecan US Inc, Durham N.C.) after a 20-minute incubation.
Fluorescence polarization values were plotted as a function of the antagonist concentration and the IC50 values were determined.

T1 sequence (Q13490 250-350): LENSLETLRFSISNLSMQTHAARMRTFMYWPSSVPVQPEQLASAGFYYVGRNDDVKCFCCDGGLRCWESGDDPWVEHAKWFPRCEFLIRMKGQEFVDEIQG

Row | IC50 [nM] | Structure (SMILES)
1 | 15 | C#CCO[C@@H]1Cc2ccccc2[C@@H]1NC(=O)[C@@H]1CCCN1C(=O)[C@@H](NC(=O)[C@H](C)NC)C1CCCCC1 [Example 2, (S)-1-((S)-2-cyclohexyl-2-((S)-2-(methylamino)propanamido)acetyl)-N-((1S,2R)-2-(prop-2-ynyloxy)-2,3-dihydro-1H-inden-1-yl)pyrrolidine-2-carboxamide]
2 | 13 | CN[C@@H](C)C(=O)N[C@H](C(=O)N1CCC[C@H]1C(=O)N[C@H]1c2ccccc2C[C@H]1OCCCCCCO[C@@H]1Cc2ccccc2[C@@H]1NC(=O)[C@@H]1CCCN1C(=O)[C@@H](NC(=O)[C@H](C)NC)C1CCCCC1)C1CCCCC1 [Example 3, (S,S,2S,2′S)-N,N′-((1S,1′S,2R,2′R)-2,2′-(Hexane-1,6-diylbis(oxy))bis(2,3-dihydro-1H-indene-2,1-diyl))bis(1-((S)-2-cyclohexyl-2-((S)-2-(methylamino)propanamido)acetyl)pyrrolidine-2-carboxamide)]
3 | 12 | CN[C@@H](C)C(=O)N[C@H](C(=O)N1CCC[C@H]1C(=O)N[C@H]1c2ccccc2C[C@H]1OCC#CC#CCO[C@@H]1Cc2ccccc2[C@@H]1NC(=O)[C@@H]1CCCN1C(=O)[C@@H](NC(=O)[C@H](C)NC)C1CCCCC1)C1CCCCC1 [Example 1, (S,S,2S,2′S)-N,N′-((1S,1′S,2R,2′R)-2,2′-(hexa-2,4-diyne-1,6-diylbis(oxy))bis(2,3-dihydro-1H-indene-2,1-diyl))bis(1-((S)-2-cyclohexyl-2-((S)-2-(methylamino)propanamido)acetyl)pyrrolidine-2-carboxamide)]
4 | 42.9 | CN[C@@H](C)C(=O)N[C@H](C(=O)N1CCC[C@H]1C(=O)N[C@H]1c2ccccc2C[C@@H]1OCC#CC#CCO[C@H]1Cc2ccccc2[C@@H]1NC(=O)[C@@H]1CCCN1C(=O)[C@@H](NC(=O)[C@H](C)NC)C1CCCCC1)C1CCCCC1 [Example 4, (S,S,2S,2′S)-N,N′-((1S,1′S,2S,2′S)-2,2′-(hexa-2,4-diyne-1,6-diylbis(oxy))bis(2,3-dihydro-1H-indene-2,1-diyl))bis(1-((S)-2-cyclohexyl-2-((S)-2-(methylamino)propanamido)acetyl)pyrrolidine-2-carboxamide)]
